Entries after “also recorded” stand apart in the source; their conditions may differ. No end group written: not given here.
Experiments:
[1] = Tumor growth, MCF-7 non-metastatic breast cancer model in athymic nude mice; format: in vivo, mouse
Procedure: The polypeptides of the invention were also tested for their effect on tumor growth in a mouse model of non-metastatic breast cancer. MCF-7 human non-metastatic breast cancer cells were cultured at 37° C., 5% CO2 in normal growth media. Cells were harvested at 80% to 90% confluence. Immune compromised athymic nude mice (J:NU) were divided into 2 groups (9 animals per group). All mice were injected with ˜4.5×10^6 MCF-7 cells which had been stained with VIVO Tracker 680 and suspended in 200 μl of PBS/Matrigel mixture. Cells were injected subcutaneously on the dorsal surface of treated animals using a 22 gauge needle fitted with a 500 μl syringe.
Animals were designated vehicle and peptide treated. The peptide treated animals were treated with the RP-397 polypeptide (SEQ ID NO: 194). Freshly prepared RP-397 peptide was dissolved in sterile saline at a concentration of 100 μM and was used to treat the animals in the peptide group. Vehicle treated animals were injected with saline buffer alone. All treatments were injected into the tumor mass two times weekly for 5 weeks using a 27½ gauge needle fitted with a 1 ml syringe. Animal weights and tumor volumes were measured 3 times weekly and the fluorescence labeling was followed by VIVO Tracker 680 and IVIS Imaging.

NF-kB = NF-kB activity in 3T3-L1 preadipocyte Nfkb-RE/GFP reporter cells; format: cell-based; conditions: 0.01 μM peptide, lipopolysaccharide 20 ng/ml, GFP fluorescence
Procedure: NF-kB activity was monitored using the a 3T3-L1 preadipocyte cell line stably transformed with a Nfkb-RE/GFP construct, as described in Shen et al. (2013), “Adipocyte reporter assays: Application for identification of anti-inflammatory and antioxidant properties of mangosteen xanthones,” Mol. Nutr. Food Res. 00:1-9, the entire contents of which are incorporated herein by reference. NF-kB expressing adipocyte reporter cells were plated in DMEM in wells of a 24-well plate, at a seeding density of 5×10^4. On the second and third days post-plating, test peptides were individually added to the wells to a final concentration of 0.01 μM. The test peptides included RP-398 (SEQ ID NO: 155), and RP-185 (SEQ ID NO: 123). On day 4 post-plating, lipopolysaccharide was added to the medium to a final concentration of 20 ng/ml. Finally, on day 5 post-plating, the cells were harvested and a fluorescence assay performed to detect GFP expression levels.

[2] = system: undifferentiated macrophages; experiment: Viable cell count of undifferentiated bone marrow macrophages; format: cell-based, mouse; conditions: 100 nM, 72 hours; sample approximately 70,000 per ml
Procedure: (§1) Primary bone marrow cells were collected from male C57BL/6J (The Jackson Laboratory, Bar Harbor, Me.). Mouse bone marrow macrophages were differentiated in vitro from the primary bone marrow cells by culturing in Dulbecco's minimal essential medium (DMEM) with 10% FBS and 30 ng/ml murine M-CSF (colony stimulating factor) for 6 days. At day 7, macrophages were plated into 12-well plates and cultured in DMEM (10% FBS) with (i) IL-4 peptide (20 ng/mL), (ii) INF-γ (10 ng/mL), or (iii) neither IL-4 nor INF-γ for 24 hours. After 24 hours, the media was replaced with pure DMEM and the cells were cultured for an additional 48 hours. The resulting macrophages were (i) M2-polarized, (ii) M1-polarized, or (iii) undifferentiated, respectively.
(§2) A macrophage sample containing approximately 70,000 […] macrophages per ml was incubated for 72 hours with 100 nM RP-182 (SEQ ID NO: 121). […] Thus, the RP-182 had little effect on the viability of M1 macrophages.

[3] = system: human triple-negative breast cancer cells (MDA-MB-231); experiment: Tumor volume, MDA-MB-231 triple-negative breast cancer in nude mice, combination with Gemcitabine; format: in vivo, mouse; conditions: Gemcitabine+RP-182 cohort, from day 32
Procedure: To test this theory, cohorts of immunocompromised (“nude”) mice were injected with ˜5×10^6 human triple-negative breast cancer cells (MDA-MB-231) under the upper left teat. Following this administration, one cohort received only vehicle; two of the cohorts received the chemotherapeutic agent Gemcitabine, at a q4d dose of 40 mg/kg of body weight. One of these cohorts also received RP-182 (SEQ ID NO: 121) at a daily dose of 5 mg/kg body weight; and a fourth cohort received only RP-182 at a daily dose of 5 mg/kg body weight. Beginning on day 32 of the study, in the Gemcitabine+RP-182 cohort, concentrations of RP-182 were increased to 20 mg/kg body weight. Tumor volume was assessed at various time points following initial cell administration (FIG. 21). After 50 days, the mice were sacrificed.

PD-L1 = PD-L1 staining of tumors in transgenic p53/KRAS mice; format: in vivo, mouse; conditions: 10 mg/kg daily subcu for one week, vs vehicle
Procedure: (§3) In one experiment, tumors in transgenic p53/KRAS mice were allowed to grow to approximately […] in volume, and the animals were then treated daily subcu for one week with either vehicle only, or 10 mg/kg RP-182, following which the animals were sacrificed and the tumors resected, formalin-fixed, and stained with antibodies to PD-1 (FIG. 19), PD-L1 and PD-L2 (FIG. 20).

PD-1 = PD-1 staining of tumors in transgenic p53/KRAS mice; format: in vivo, mouse; conditions: 10 mg/kg daily subcu for one week, vs vehicle
Procedure: as §3

PD-L2 = PD-L2 staining of tumors in transgenic p53/KRAS mice; format: in vivo, mouse; conditions: 10 mg/kg daily subcu for one week, vs vehicle
Procedure: as §3

M2-polarized macrophages = experiment: Viable cell count of M2-polarized bone marrow macrophages; format: cell-based, mouse; conditions: 100 nM, 72 hours
Procedure: as §1, §2

M1-polarized macrophages = experiment: Viable cell count of M1-polarized bone marrow macrophages; format: cell-based, mouse; conditions: 100 nM, 72 hours
Procedure: as §1, §2

FAKKFAKKF [RP-397, FAKKFAKKF]
Body Weight After ([1]; after treatment): 30.1 g | Body Weight Before ([1]; before treatment): 25.1 g

FAKKFAKKFK [RP-398]
NF-kB expression reduced relative to control cells (NF-kB): approximately 58%

FFKKFFKKFK [RP-185]
NF-kB expression reduced relative to control cells (NF-kB): approximately 58%

KFRKAFKRFF [RP-182]
viable cell count, undifferentiated macrophages [2]: 68,000 cells per ml | increase in tumor volume after RP-182 raised to 20 mg/kg [3]: essentially halted | PD-L1 expression in tumor (PD-L1): significantly downregulated; also recorded: reduced | PD-1 expression in tumor (PD-1): significantly downregulated; also recorded: reduced | PD-L2 expression in tumor (PD-L2): significantly downregulated; also recorded: reduced | viable cell count, M2-polarized macrophages (M2-polarized macrophages): 20,000 cells per ml | viable cell count, M1-polarized macrophages (M1-polarized macrophages): 68,000 cells per ml
